The record followed here is ChEMBL document CHEMBL3774317, “Design and synthesis of novel tamoxifen analogues that avoid CYP2D6 metabolism” (Eur J Med Chem, 2016).

The nature of data set [1]: Cytotoxicity against human Hs 578T cells assessed as cell growth at 5 nM after 48 hrs by SRB assay. The format is functional. The following applies: read-out: Activity.
The nature of data set [2]: Cytotoxicity against human SW620 cells assessed as cell growth at 0.5 uM after 48 hrs by SRB assay. The format is functional. Conditions: SW-620, 48 h, read-out: Activity. (In general: The SRB assay estimates cell density from bound dye.)
Data set [3] in a line: Cytotoxicity against human SF295 cells assessed as cell growth at 50 uM after 48 hrs by SRB assay. Format: functional. The following applies: SF-295, 48 h, read-out: Activity.
In data set [4] the test system is NCI-H460. Nature of the data set: Cytotoxicity against human NCI-H460 cells assessed as cell growth at 50 uM after 48 hrs by SRB assay. The format is functional. Conditions: NCI-H460, 48 h, read-out: Activity.
Data set [5] relates to SK-MEL-5. Nature of the data set: Cytotoxicity against human SK-MEL-5 cells assessed as cell growth at 5 nM after 48 hrs by SRB assay. The format is functional. The following applies: SK-MEL-5, 48 h, read-out: Activity.
The nature of data set [6]: Cytotoxicity against human SNB19 cells assessed as cell growth at 50 nM after 48 hrs by SRB assay. The format is functional. The following applies: SNB-19, 48 h, read-out: Activity.
For data set [7], the system named is SK-MEL-5. Nature of the data set: Cytotoxicity against human SK-MEL-5 cells assessed as cell growth at 50 uM after 48 hrs by SRB assay. The format is functional. Conditions: SK-MEL-5, 48 h, read-out: Activity.
Data set [8] can be described thus: Cytotoxicity against human RPMI8226 cells assessed as cell growth at 5 nM after 48 hrs by SRB assay. Format: functional. Conditions: RPMI-8226, 48 h, read-out: Activity.
In data set [9] the test system is MDA-MB-231. Nature of the data set: Cytotoxicity against human MDA-MB-231 cells assessed as cell growth at 50 uM after 48 hrs by SRB assay. Format: functional. Conditions: MDA-MB-231, 48 h, read-out: Activity.
Data set [10] can be described thus: Cytotoxicity against human MOLT4 cells assessed as cell growth at 5 nM after 48 hrs by SRB assay. The following applies: MOLT-4, 48 h, read-out: Activity. Format: functional.
For a further data set, the system named is MDA-MB-468. Nature of the data set: Cytotoxicity against human MDA-MB-468 cells assessed as cell growth at 50 uM after 48 hrs by SRB assay. The format is functional. Conditions: MDA-MB-468, 48 h, read-out: Activity.
Data set [11] can be described thus: Cytotoxicity against human SF295 cells assessed as cell growth at 50 nM after 48 hrs by SRB assay. The format is functional. The following applies: SF-295, 48 h, read-out: Activity.
Data set [12] is described as follows: Cytotoxicity against human HOP92 cells assessed as cell growth at 50 uM after 48 hrs by SRB assay. The format is functional. The following applies: HOP-92, 48 h, read-out: Activity.
Data set [13] in a line: Cytotoxicity against human Hs 578T cells assessed as cell growth at 50 nM after 48 hrs by SRB assay. The format is functional. Conditions: read-out: Activity.
A short description of data set [14]: Metabolic stability in human liver microsomes assessed as remaining parent compound level at 10 uM measured immediately after compound addition in absence of NAPDH by LC/MS analysis. The format is ADME. Conditions: read-out: Drug metabolism. (In general: Microsomes from liver hold many membrane-bound enzymes, among them those of drug oxidation.)
Data set [15] can be described thus: Cytotoxicity against human SF539 cells assessed as cell growth at 5 nM after 48 hrs by SRB assay. Format: functional. The following applies: SF-539, 48 h, read-out: Activity.
The nature of data set [16]: Cytotoxicity against human SF539 cells assessed as cell growth at 5 uM after 48 hrs by SRB assay. Format: functional. Conditions: SF-539, 48 h, read-out: Activity.
Data set [17] is described as follows: Cytotoxicity against human HCT15 cells assessed as cell growth at 50 uM after 48 hrs by SRB assay. The format is functional. The following applies: HCT-15, 48 h, read-out: Activity.
Data set [18] is described as follows: Cytotoxicity against human SW620 cells assessed as cell growth at 50 uM after 48 hrs by SRB assay. The following applies: SW-620, 48 h, read-out: Activity. The format is functional.
The test system of data set [19] is MCF7. Nature of the data set: Cytotoxicity against human MCF7 cells assessed as cell growth at 50 uM after 48 hrs by SRB assay. The format is functional. Conditions: MCF7, 48 h, read-out: Activity.
The subject of the next data set is ACHN. Nature of the data set: Cytotoxicity against human ACHN cells assessed as cell growth at 0.5 uM after 48 hrs by SRB assay. The format is functional. The following applies: read-out: Activity.
Data set [20] in a line: Cytotoxicity against human LOXIMVI cells assessed as cell growth at 50 uM after 48 hrs by SRB assay. The format is functional. The following applies: LOX IMVI, read-out: Activity.
The subject of data set [21] is NCI-H23. Nature of the data set: Cytotoxicity against human NCI-H23 cells assessed as cell growth at 10^-4 M after 48 hrs by SRB assay. The format is functional. Conditions: NCI-H23, 48 h, read-out: Activity.
Data set [22] can be described thus: Cytotoxicity against human HL-60(TB) cells assessed as cell growth at 10^-7 M after 48 hrs by SRB assay. The format is functional. The following applies: HL-60, 48 h, read-out: Activity.
The next data set relates to SN12C. Nature of the data set: Cytotoxicity against human SN12C cells assessed as cell growth at 10^-4 M after 48 hrs by SRB assay. The format is functional. The following applies: read-out: Activity.
A short description of data set [23]: Cytotoxicity against human HCT15 cells assessed as cell growth at 10^-7 M after 48 hrs by SRB assay. The format is functional. Conditions: HCT-15, 48 h, read-out: Activity.
Data set [24] can be described thus: Cytotoxicity against human HL-60(TB) cells assessed as cell growth at 10^-6 M after 48 hrs by SRB assay. The following applies: HL-60, 48 h, read-out: Activity. The format is functional.
Data set [25] deals with NCI-H23. Nature of the data set: Cytotoxicity against human NCI-H23 cells assessed as cell growth at 10^-7 M after 48 hrs by SRB assay. The format is functional. Conditions: NCI-H23, 48 h, read-out: Activity.
Data set [26] can be described thus: Cytotoxicity against human IGROV1 cells assessed as cell growth at 10^-6 M after 48 hrs by SRB assay. The format is functional. The following applies: IGROV-1, 48 h, read-out: Activity.
For a further data set, the system named is Malme-3M. Nature of the data set: Cytotoxicity against human MALME-3M cells assessed as cell growth at 10^-8 M after 48 hrs by SRB assay. Conditions: read-out: Activity. The format is functional.
A further data set has as its system EKVX. Nature of the data set: Cytotoxicity against human EKVX cells assessed as cell growth at 10^-4 M after 48 hrs by SRB assay. The format is functional. The following applies: read-out: Activity.
Data set [27] concerns MCF7. Nature of the data set: Cytotoxicity against human MCF7 cells assessed as cell growth at 10^-4 M after 48 hrs by SRB assay. Format: functional. The following applies: MCF7, 48 h, read-out: Activity.
The subject of the next data set is SK-MEL-2. Nature of the data set: Cytotoxicity against human SK-MEL-2 cells assessed as cell growth at 10^-4 M after 48 hrs by SRB assay. Format: functional. The following applies: SK-MEL-2, 48 h, read-out: Activity.
The nature of data set [28]: Cytotoxicity against human HCC2998 cells assessed as cell growth at 10^-8 M after 48 hrs by SRB assay. Format: functional. Conditions: HCC 2998, 48 h, read-out: Activity.
A short description of data set [29]: Cytotoxicity against human HOP92 cells assessed as cell growth at 10^-6 M after 48 hrs by SRB assay. Format: functional. Conditions: HOP-92, 48 h, read-out: Activity.
The test system of data set [30] is NCI-H460. Nature of the data set: Cytotoxicity against human NCI-H460 cells assessed as cell growth at 10^-5 M after 48 hrs by SRB assay. Format: functional. The following applies: NCI-H460, 48 h, read-out: Activity.
A short description of data set [31]: Cytotoxicity against human SNB19 cells assessed as cell growth at 10^-8 M after 48 hrs by SRB assay. The format is functional. The following applies: SNB-19, 48 h, read-out: Activity.
The nature of data set [32]: Cytotoxicity against human DU145 cells assessed as cell growth at 10^-5 M after 48 hrs by SRB assay. Format: functional. The following applies: DU-145, 48 h, read-out: Activity.
Data set [33] can be described thus: Cytotoxicity against human OVCAR8 cells assessed as cell growth at 10^-4 M after 48 hrs by SRB assay. Conditions: OVCAR-8, 48 h, read-out: Activity. Format: functional.
The subject of data set [34] is MDA-MB-231. Nature of the data set: Cytotoxicity against human MDA-MB-231 cells assessed as cell growth at 10^-4 M after 48 hrs by SRB assay. Format: functional. The following applies: MDA-MB-231, 48 h, read-out: Activity.
The nature of data set [35]: Cytotoxicity against human DU145 cells assessed as cell growth at 10^-7 M after 48 hrs by SRB assay. Format: functional. The following applies: DU-145, 48 h, read-out: Activity.
The nature of data set [36]: Cytotoxicity against human OVCAR5 cells assessed as cell growth at 10^-5 M after 48 hrs by SRB assay. The format is functional. Conditions: OVCAR-5, 48 h, read-out: Activity.

Regarding `CCCCCCCCCC(=O)Oc1ccc(/C(=C(/C)c2ccccc2)c2ccc(OCCN3CCCC3)cc2)cc1`, the growth at 0.005 µM amounted to 92% in data set [1]; 100% with SK-MEL-5 [5]; 99% in data set [8]; 97% in [10]; 105% in data set [15]. The growth at 0.5 µM (in data set [2]; in the data set on ACHN) was 88% throughout. Further, the growth at 50 µM in data set [3] was -94%; in the data set with NCI-H460 [4], -91%; in the data set on SK-MEL-5 [7] it was -100%; in the data set with MDA-MB-231 [9], -67%; with MDA-MB-468, -87%; in [12] it was -75%. Also, the growth at 50 µM in [17] is -100%; in data set [18], -97%; with MCF7 [19] it was -79%; in [20], -100%. Besides, the growth at 0.05 µM in data set [6] was 98%; in data set [11], 89%; in data set [13] it was 92%. For the same compound, the remaining at 0 h, 10 µM in data set [14] amounted to 82%. Also, in data set [16], the growth at 5 µM stood at 92%.

On to `C/C(=C(/c1ccc(O)cc1)c1ccc(OCCN2CCCC2)cc1)c1ccccc1`, for which the growth at 100 µM is -83% with NCI-H23 [21]; -69% in the data set with SN12C; -100% in the data set on EKVX; -66% in the data set on MCF7 [27]; -89% in the data set on SK-MEL-2; -61% in data set [33]. Besides, in the data set with MDA-MB-231 [34], the growth at 100 µM was -71%. In addition, the growth at 0.1 µM in [22] came to 99%; in [23], 91%; with NCI-H23 [25] it was 94%; in [35], 96%. Moreover, the growth at 1 µM in data set [24] turned out to be 90%; in [26], 95%; in data set [29], 84%. Further, the values for the growth at 0.01 µM (in the data set with Malme-3M; in data set [28]; in data set [31]) were 99%, 100% and 104%, respectively. The results for the growth at 10 µM (in the data set on NCI-H460 [30]; in [32]; in data set [36]) were -38%, 49% and 46%, respectively.
